What is called Ki is the dissociation constant of the complex between target and ligand, obtained from inhibition or displacement. Lower therefore signals a stronger hold on the target.

In the assay the target is MurQ-EC (MurNAc 6P hydrolase from Escherichia coli) (Escherichia coli, UniProt P76535). Nature of the assay: coupled spectrophotometric assay of D-lactate release. It is filed as biochemical.
Chain of MurQ-EC (MurNAc 6P hydrolase from Escherichia coli) (P76535 whole entry): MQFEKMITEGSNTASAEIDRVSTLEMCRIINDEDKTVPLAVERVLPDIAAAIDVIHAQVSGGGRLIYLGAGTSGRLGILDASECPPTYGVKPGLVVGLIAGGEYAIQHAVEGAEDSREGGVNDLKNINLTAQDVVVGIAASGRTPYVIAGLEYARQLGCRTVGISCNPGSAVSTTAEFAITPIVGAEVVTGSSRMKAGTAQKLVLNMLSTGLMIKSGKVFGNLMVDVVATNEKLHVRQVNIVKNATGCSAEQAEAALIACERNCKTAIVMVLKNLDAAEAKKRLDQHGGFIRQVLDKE

`CC(=O)N[C@@H](CO)[C@@H](O)[C@H](O)[C@H](O)COP(=O)(O)O` [compound 1] had a Ki of 1100 ± 300 µM. `CC(=O)N[C@@H](CO)[C@@H](O[C@H](C)C(=O)O)[C@H](O)[C@H](O)COP(=O)(O)O` [compound 2]: the Ki was 230 ± 20 µM.

(Values after paper PMC3898461 (Biochemistry, 2013).)
